Test results: patent US20180244653A1, “SELECTIVE ALPHA-7 NICOTINIC RECEPTOR AGONISTS AND METHODS FOR MAKING AND USING THEM” (THE REGENTS OF THE UNIVERSITY OF CALIFORNIA, priority 2015, published 2018)
Several values for one entry are separate records, joined by “and”; a condition that tells them apart may be missing. Identical values can stand only once. Like-named read-outs stand apart in the source and are kept apart here.

What was measured:
5HT3A receptors = molecular target: T1, 5HT3A receptors (Mus musculus, UniProt P23979); assay: Intact cell competitive radioligand binding assay ([3H]-granisetron, SPA), LGIC-CNiFERs; settings: >10 = did not pass initial screen at 10 μM; read-out: Kd ± SD, 5HT3A
T1 construct: expressed in transfected cells; host or cells: HEK293 cells co-expressing TN-XXL
T1 sequence (P23979 24-489): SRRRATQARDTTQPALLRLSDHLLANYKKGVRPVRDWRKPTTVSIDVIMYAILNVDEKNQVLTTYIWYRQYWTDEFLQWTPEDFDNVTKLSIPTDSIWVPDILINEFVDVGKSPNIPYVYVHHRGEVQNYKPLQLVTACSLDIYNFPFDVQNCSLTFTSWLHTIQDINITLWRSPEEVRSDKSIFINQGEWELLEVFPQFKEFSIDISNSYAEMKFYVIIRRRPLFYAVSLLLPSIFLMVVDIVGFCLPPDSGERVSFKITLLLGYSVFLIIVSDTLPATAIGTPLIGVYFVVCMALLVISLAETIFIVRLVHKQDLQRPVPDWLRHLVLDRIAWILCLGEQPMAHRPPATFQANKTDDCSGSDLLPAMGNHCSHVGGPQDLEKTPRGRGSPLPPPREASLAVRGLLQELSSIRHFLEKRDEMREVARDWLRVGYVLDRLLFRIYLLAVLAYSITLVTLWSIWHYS

[1] = system: scopolamine-induced amnesic mice; assay: Modified Y-maze test; format: in vivo; settings: for Unfamiliar arm exploration / cognitive deficit, modified Y-maze vs scopolamine-treated group: i.p. 1 h before, scopolamine 1 mg/kg, doses as in the sentence; for Fold lower effective dose than PNU-282987, modified Y-maze: mouse, in vivo; for Minimum effective dose, Modified Y-maze: scopolamine induced amnesia model, ICR mice, i.p.
Procedure: The modified Y-maze test was performed to evaluate spatial working memory. The experiment was divided into 3 sessions; (i) IND8 at 5, 10, and 50 μmol/kg or 1.5, 2.9, and 14.7 mg/kg doses, (ii) QND8 at 5, 10, and 50 μmol/kg or 1.4, 2.7, 13.5 mg/kg doses, and (iii) IND8 and QND8 at dose of 25 μmol/kg or 7.3 and 6.8 mg/kg, respectively and PNU-282987 at […] or 3, 10 mg/kg doses.
FIG. 21 illustrates the percentage of unfamiliar arm exploration in modified Y-maze of IND8 (FIG. 21A), QND8 (FIG. 21B), and IND8, QND8, PNU-282987 (FIG. 21C). IND8, QND8, PNU-282987, vehicle (15% Tween80, SH) and tacrine (TC) were injected 1 h and scopolamine (SC) 30 min before sample phase, respectively. Each mouse was placed at the end of one arm and allowed to access 2 arms of Y-maze for 5 min in sample phase. After a 30 min period, the mouse was allowed to explore 3 arms for 5 min. The number of entries for each arm was recorded and the percentage of unfamiliar arm exploration was calculated. Data represented in means±standard errors (SE).
Male ICR mice (6-weeks of age) were housed in 5 per cage with free access to food and tap water under 12 h light and dark cycle (light on 6:00 to 18:00) in a temperature and humidity controlled room. They were acclimated in a laboratory at least 7 days prior to starting experiments. The experimental protocols were approved by the Animal Care and Use Committee of KhonKaen University, Thailand.
Tacrine hydrochloride (Sigma-Aldrich, St. Louis, Mo.), PNU-282987 hydrochloride (Alamone, Jerusalem, Israel) and test compounds were prepared as suspensions by using 15% tween 80 in distilled water as a vehicle, whereas scopolamine hydrochloride (Sigma-Aldrich, St. Louis, Mo.) and methyllycaconitine citrate (MLA) (Abcam, Cambridge, England) were prepared as a solution by dissolving with 0.9% normal saline solution (NSS). All compounds were administered by intraperitoneal (i.p.) injection in the amount of 5 mL/kg. Test compounds were injected 1 h and scopolamine was administered 30 min before the experiments, whereas MLA was injected 5 min before the test compounds.
Amnesia was induced pharmacologically in mice via scopolamine injection (single dose) for 30 min prior to start the experiments. They were divided into vehicle group: receiving 15% tween 80 and 0.9% NSS, amnesia group: receiving scopolamine 1 mg/kg, standard positive control group receiving tacrine 1 mg/kg, and test group: receiving IND8, QND8 at dose 5, 10, 25, 50 μmol/kg, or PNU-282987 3, 10 mg/kg, single dose. All mice were acclimated in an experimental room at least 30 min before the experiments.
The maze in this experiment is the same apparatus using in locomotor activity test except there is the black partition to close one of three arms. The mice were randomly separated into different treatment groups. They were injected with test compounds and scopolamine at 1 h and 30 min, respectively, before the sample phase. In this phase which one arm of Y-maze was closed by the black partition, each mouse was placed at the end of one arm and allowed to move through 2 arms for 5 min to get familiar with the two opened arms. After 30 min of resting, all arms were opened and the mouse was allowed to move freely through all 3 arms. The maze area and the partition were cleaned with 70% ethanol between each experiment to remove olfactory cues. The number of entries in each arm was counted visually if mice accessed into each arm at least 10 cm. The percentage of unfamiliar arm exploration was calculated as following equation: […]

α4β2-nAChRs = molecular target: T2, α4β2-nAChRs (Homo sapiens, UniProt P17787+P43681); assay: Intact cell competitive radioligand binding assay ([3H]-(±)-epibatidine, SPA), LGIC-CNiFERs
T2 construct: expressed in transfected cells; host or cells: HEKtsA201 cells co-expressing TN-XXL

[2] = molecular target: α7/5HT3A chimera receptor (hα7/m5HT3A), used for α7-nAChRs (UniProt P23979+P36544, M226I/T225I); assay: as above; settings: read-out: Kd ± SD, α7-nAChRs; >10 = did not pass initial screen at 10 μM
[3] = >10 = did not pass initial screen at 10 μM, read-out: Kd ± SD, α4β2

Oc1ccc(-c2cn(C3CN4CCC3CC4)nn2)cc1 (centres unmarked) [QND8, 3-(4-hydroxyphenyl-1,2,3-triazol-1-yl) quinuclidine]
Kd (5HT3A receptors): 540 ± 50 nM | Unfamiliar arm exploration / cognitive deficit, modified Y-maze vs scopolamine-treated group [1]: improved the cognitive deficit significantly only at the 2.7 mg/kg dose | Fold lower effective dose than PNU-282987, modified Y-maze [1]: four-fold | Minimum effective dose, Modified Y-maze [1]: 10 µmol/kg | Kd (α4β2-nAChRs; [3]): > 10000 nM | Kd [2]: 80 nM and 81 nM

O=C(N[C@H]1CN2CCC1CC2)c1ccc(Cl)cc1 [PNU-282987, reference compound]
Kd (5HT3A receptors): > 10000 nM | Minimum effective dose, Modified Y-maze [1]: 33 µmol/kg | Kd (α4β2-nAChRs): > 10000 nM | Kd [2]: 270 ± 140 nM

c1cc2cc(-c3cn(C4CN5CCC4CC5)nn3)ccc2[nH]1 (centres unmarked) [IND8, 5-((Quinuclid-3-yl)-1H-1,2,3-triazol-4-yl)-1H-indole]
Kd (5HT3A receptors): 50 nM and 52 nM | Unfamiliar arm exploration / cognitive deficit, modified Y-maze vs scopolamine-treated group [1]: reversed the cognitive deficit induced by scopolamine | Fold lower effective dose than PNU-282987, modified Y-maze [1]: seven-fold | Minimum effective dose, Modified Y-maze [1]: 5 µmol/kg | Initial screening for binding to α4β2-nAChRs (α4β2-nAChRs; 10 μM, more than 50% radioligand displacement): binds to α4β2-nAChRs | Kd (α4β2-nAChRs; [3]): 750 nM | Kd [2]: 120 nM
